Patent US20080064871A1, “Production Method of Nitrogen-Containing Fused Ring Compounds” (Japan Tobacco Inc., priority 2006, published 2008)

Molecular target: T1, human URAT1 (Homo sapiens, UniProt Q96S37)
T1 construct: Human URAT1 full length cDNA was subcloned to expression vector pcDNA3.1; expressed in transfected cells; host or cells: HEK293 cells (pcDNA3.1, geneticin-selected)
T1 sequence (Q96S37 1-553): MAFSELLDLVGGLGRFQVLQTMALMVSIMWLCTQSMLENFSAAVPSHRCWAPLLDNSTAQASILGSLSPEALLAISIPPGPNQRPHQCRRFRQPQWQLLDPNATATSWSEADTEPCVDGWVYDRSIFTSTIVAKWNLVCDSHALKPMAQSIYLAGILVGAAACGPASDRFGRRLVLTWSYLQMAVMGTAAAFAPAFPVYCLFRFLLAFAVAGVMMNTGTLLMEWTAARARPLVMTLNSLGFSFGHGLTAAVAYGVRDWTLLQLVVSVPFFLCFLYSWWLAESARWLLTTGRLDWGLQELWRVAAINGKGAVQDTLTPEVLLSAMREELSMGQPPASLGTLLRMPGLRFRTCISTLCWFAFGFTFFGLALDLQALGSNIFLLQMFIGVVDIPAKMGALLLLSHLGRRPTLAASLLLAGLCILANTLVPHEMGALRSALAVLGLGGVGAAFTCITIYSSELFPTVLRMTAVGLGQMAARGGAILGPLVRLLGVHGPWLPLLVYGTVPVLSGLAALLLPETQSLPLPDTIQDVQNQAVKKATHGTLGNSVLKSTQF
Assay: Uric acid transport inhibitory test using human URAT1-expressing cells
Assay type: cell-based
Conditions: human URAT1 expressing HEK293 cells, uptake of 14C-labeled uric acid for 5 min, room temperature; read-out: hURAT1 (IC50, concentration necessary for inhibiting the uric acid transport rate by 50%)
Description: Reference Experimental Example 1 Uric Acid Transport Inhibitory Test Using Human Urat1-Expressing Cells
Human URAT1 full length cDNA was subcloned to expression vector pcDNA3.1 and human URAT1 gene was transfected into human embryonic kidney derived cell line (HEK293 cells) by liposome method using Lipofectamine2000. Simultaneously, HEK293 cells transfected with expression vector pcDNA3.1 alone (hereinafter mock cells) were also produced. HEK293 cells expressing human URAT1 gene or mock cells were selected with geneticin resistance as an index. The functional expression of human URAT1 gene was confirmed by a method similar to the following method, using transport of uric acid labeled with ^14C into the cells as an index.
Human URAT1 expressing HEK293 cells or mock cells were cultured in Dulbecco's modified Eagle's MEM medium (high glucose) containing 10% fetal bovine serum, 0.5 mg/mL geneticin sulfate, 100 units/mL penicillin and 100 μg/mL streptomycin under the conditions of 37° C. and 5% CO2 in an incubator. The cells were plated in a 96 well plate (poly-D-Lysine coated) at 1×10^5 cells/well and the following uric acid transport inhibitory test was performed 24 hr later. This test was performed at room temperature.
After the medium was removed by aspiration from each well, the cells were washed once with Hank's Balanced Salt Solution (HBSS) and preincubated with HBSS ([…]) for 5 min. HBSS was aspirated and an assay buffer (wherein NaCl in the above-mentioned HBSS had been substituted with Na-gluconate) containing various concentrations of the Example compound and a radioactive ligand (uric acid labeled with 14C; final concentration […]) was added to each well at […] and an uptake reaction was carried out for 5 min. After the reaction, the cells were washed twice with ice-cold HBSS ([…]), and Microscin ti TM 20 (PerkinElmer) was added at […]. The cells were lysed by stirring and the radioactivity of each well was measured in a liquid scintillation counter (TOP COUNT, Packard).
The uric acid transport rate (%) of the Example compound at each concentration was calculated relative to the radioactivity (difference in radioactivity between human URAT1 expressing HEK293 cells and mock cells without addition of Example compound (DMSO addition)) showing URAT1 specific uric acid transport as 100%, and the concentration (IC50) of the Example compound necessary for inhibiting the uric acid transport rate by 50% was determined. In Table-Table, “+++” means IC50 value of less than 100 nM, “++” means IC50 value of 100 nM to less than 1000 nM, and “+” means IC50 value of 1000 nM to less than 3000 nM.

SMILES: CN(C)S(=O)(=O)c1ccc2c(c1)N(C(=O)c1cc(Cl)c(O)c(Cl)c1)CCO2 [Example 35, 4-(3,5-dichloro-4-hydroxybenzoyl)-3,4-dihydro-2H-benzo[1,4]oxazine-6-sulfonic acid dimethylamide]
- IC50: 1000 to 3000 nM

SMILES: O=C(c1cc(Cl)cc(Cl)c1O)N1CCOc2ccccc21 [Example 38, (3,5-dichloro-2-hydroxyphenyl)-(2,3-dihydrobenzo[1,4]oxazin-4-yl)-methanone]
- IC50: 100 to 1000 nM

SMILES: O=C(c1ccc(O)c(C(F)(F)F)c1)N1CCOc2ccccc21 [Example 39, (2,3-dihydrobenzo[1,4]oxazin-4-yl)-(4-hydroxy-3-trifluoromethylphenyl)-methanone]
- IC50: < 100 nM

SMILES: O=C(c1cc(Br)c(O)c(Br)c1)N1CCOc2ccc(Cl)cc21 [Example 82, (6-chloro-2,3-dihydrobenzo[1,4]oxazin-4-yl)-(3,5-dibromo-4-hydroxyphenyl)-methanone]
- IC50: < 100 nM

SMILES: Oc1c(Cl)cc(C(=S)N2CCOc3ccccc32)cc1Cl [Example 11, (3,5-dichloro-4-hydroxyphenyl)-(2,3-dihydrobenzo[1,4]oxazin-4-yl)-methanethione]
- IC50: < 100 nM

SMILES: CS(=O)(=O)N1CCN(C(=O)c2cc(Cl)c(O)c(Cl)c2)c2ccccc21 [Example 83, (3,5-dichloro-4-hydroxyphenyl)-(4-methanesulfonyl-3,4-dihydro-2H-quinoxalin-1-yl)-methanone]
- IC50: 100 to 1000 nM

SMILES: O=C(c1cc(Cl)c(O)c(Cl)c1)N1CCOc2cc([N+](=O)[O-])ccc21 [Example 70, (3,5-dichloro-4-hydroxyphenyl)-(7-nitro-2,3-dihydrobenzo[1,4]oxazin-4-yl)-methanone]
- IC50: 100 to 1000 nM

SMILES: O=C(c1cc(Cl)c(O)c(Cl)c1)N1CCS(=O)(=O)c2ccccc21 [Example 10, (3,5-dichloro-4-hydroxyphenyl)-(1,1-dioxo-2,3-dihydro-1H-1λ^6-benzo[1,4]thiazin-4-yl)-methanone]
- IC50: 100 to 1000 nM

SMILES: O=C(c1cc(Cl)c(O)c([N+](=O)[O-])c1)N1CCOc2ccccc21 [Example 31, (3-chloro-4-hydroxy-5-nitrophenyl)-(2,3-dihydrobenzo[1,4]oxazin-4-yl)-methanone]
- IC50: < 100 nM

SMILES: CN1CCN(C(=O)c2cc(Cl)c(O)c(Cl)c2)c2ccccc21 [Example 74, (3,5-dichloro-4-hydroxyphenyl)-(4-methyl-3,4-dihydro-2H-quinoxalin-1-yl)-methanone]
- IC50: 100 to 1000 nM

SMILES: Cc1cc(C)c2c(c1)N(C(=O)c1cc(Cl)c(O)c(Cl)c1)CCO2 [Example 66, (3,5-dichloro-4-hydroxyphenyl)-(6,8-dimethyl-2,3-dihydrobenzo[1,4]oxazin-4-yl)-methanone]
- IC50: 100 to 1000 nM

SMILES: O=C(c1cc(Cl)c(O)c(Cl)c1)N1CCOc2ccc(C(F)(F)F)cc21 [Example 85, (3,5-dichloro-4-hydroxyphenyl)-(6-trifluoromethyl-2,3-dihydrobenzo[1,4]oxazin-4-yl)-methanone]
- IC50: < 100 nM

SMILES: Cc1ccc2c(c1)N(C(=O)c1cc(Br)c(O)c(Br)c1)CCO2 [Example 81, (3,5-dibromo-4-hydroxyphenyl)-(6-methyl-2,3-dihydrobenzo[1,4]oxazin-4-yl)-methanone]
- IC50: < 100 nM

SMILES: O=C(c1cc(Cl)c(O)c(Cl)c1)N1CCCc2ccccc21 [Example 26, (3,5-dichloro-4-hydroxyphenyl)-(3,4-dihydro-2H-quinolin-1-yl)-methanone]
- IC50: 100 to 1000 nM

SMILES: O=C(c1cc(Cl)c(O)c(Cl)c1)N1CCOc2cccnc21 [Example 36, (3,5-dichloro-4-hydroxyphenyl)-(2,3-dihydropyrido[3,2-b][1,4]oxazin-4-yl)-methanone]
- IC50: 100 to 1000 nM

SMILES: O=C(c1cc(Br)c(O)c(Br)c1)N1CCOc2ccc(F)cc21 [Example 79, (3,5-dibromo-4-hydroxyphenyl)-(6-fluoro-2,3-dihydrobenzo[1,4]oxazin-4-yl)-methanone]
- IC50: < 100 nM

SMILES: O=C(c1cc(Cl)c(O)c(Cl)c1)N1c2ccccc2Oc2ccccc21 [Example 64, (3,5-dichloro-4-hydroxyphenyl)-phenoxazin-10-ylmethanone]
- IC50: 1000 to 3000 nM

SMILES: COc1cc(C(=O)N2CCOc3ccccc32)cc(Cl)c1O [Example 40, (3-chloro-4-hydroxy-5-methoxyphenyl)-(2,3-dihydrobenzo[1,4]oxazin-4-yl)-methanone]
- IC50: 100 to 1000 nM

SMILES: O=C(c1cc(I)c(O)c(I)c1)N1CCOc2ccccc21 [Example 5, (2,3-dihydrobenzo[1,4]oxazin-4-yl)-(4-hydroxy-3,5-diiodophenyl)-methanone]
- IC50: < 100 nM

SMILES: CC(C)(C)c1ccc2c(c1)N(C(=O)c1cc(Cl)c(O)c(Cl)c1)CCO2 [Example 23, (6-tert-butyl-2,3-dihydrobenzo[1,4]oxazin-4-yl)-(3,5-dichloro-4-hydroxyphenyl)-methanone]
- IC50: 1000 to 3000 nM

SMILES: O=C(c1cc(Cl)c(O)c(Cl)c1)N1CCOc2ccc([N+](=O)[O-])cc21 [Example 67, (3,5-dichloro-4-hydroxyphenyl)-(6-nitro-2,3-dihydrobenzo[1,4]oxazin-4-yl)-methanone]
- IC50: < 100 nM

SMILES: O=C(c1cc(Cl)c(O)c(Cl)c1)N1CCOc2cc(Cl)ccc21 [Example 52, (7-chloro-2,3-dihydrobenzo[1,4]oxazin-4-yl)-(3,5-dichloro-4-hydroxyphenyl)-methanone]
- IC50: 100 to 1000 nM

SMILES: O=C(c1cc(F)c(O)c(F)c1)N1CCOc2ccccc21 [Example 6, (3,5-difluoro-4-hydroxyphenyl)-(2,3-dihydrobenzo[1,4]oxazin-4-yl)-methanone]
- IC50: 100 to 1000 nM

SMILES: COC(=O)c1ccc2c(c1)OCCN2C(=O)c1cc(Cl)c(O)c(Cl)c1 [Example 59, methyl 4-(3,5-dichloro-4-hydroxybenzoyl)-3,4-dihydro-2H-benzo[1,4]oxazine-7-carboxylate]
- IC50: 1000 to 3000 nM

SMILES: O=C(c1cc(Cl)c(O)c(Cl)c1)N1CCCCc2ccccc21 [Example 27, (3,5-dichloro-4-hydroxyphenyl)-(2,3,4,5-tetrahydrobenzo[b]azepin-1-yl)-methanone]
- IC50: 100 to 1000 nM

SMILES: O=C(c1ccc(O)c([N+](=O)[O-])c1)N1CCOc2ccccc21 [Example 75, (2,3-dihydrobenzo[1,4]oxazin-4-yl)-(4-hydroxy-3-nitrophenyl)-methanone]
- IC50: 100 to 1000 nM

SMILES: COC(=O)c1ccc2c(c1)N(C(=O)c1cc(Cl)c(O)c(Cl)c1)CCO2 [Example 55, methyl 4-(3,5-dichloro-4-hydroxybenzoyl)-3,4-dihydro-2H-benzo[1,4]oxazine-6-carboxylate]
- IC50: 100 to 1000 nM

SMILES: O=C(c1cc(Cl)c(O)c(Cl)c1)N1CCSc2ccccc21 [Example 8, (3,5-dichloro-4-hydroxyphenyl)-(2,3-dihydrobenzo[1,4]thiazin-4-yl)-methanone]
- IC50: 100 to 1000 nM

SMILES: O=C(c1cc(Cl)c(O)c(Cl)c1)N1CCOc2ccc(Cl)cc21 [Example 51, (6-chloro-2,3-dihydrobenzo[1,4]oxazin-4-yl)-(3,5-dichloro-4-hydroxyphenyl)-methanone]
- IC50: < 100 nM

SMILES: COc1ccc2c(c1)N(C(=O)c1cc(Cl)c(O)c(Cl)c1)CCO2 [Example 17, (3,5-dichloro-4-hydroxyphenyl)-(6-methoxy-2,3-dihydrobenzo[1,4]oxazin-4-yl)-methanone]
- IC50: < 100 nM

SMILES: O=C(c1cc(Cl)c(O)c(Cl)c1)N1CCOc2ccc(-c3ccccc3)cc21 [Example 65, (3,5-dichloro-4-hydroxyphenyl)-(6-phenyl-2,3-dihydrobenzo[1,4]oxazin-4-yl)-methanone]
- IC50: 1000 to 3000 nM

SMILES: O=C(c1cc(Cl)c(O)c(Cl)c1)N1CCc2ccccc21 [Example 77, (3,5-dichloro-4-hydroxyphenyl)-(2,3-dihydroindol-1-yl)-methanone]
- IC50: 100 to 1000 nM
